One data set can be described thus: physchem. As to conditions: octanol/phosphate buffer, pH 7.4.
A short description of data set [1]: Equilibrium solubility in phosphate buffer, pH 7.4. It counts as physicochemical. As to conditions: aqueous buffer, thermodynamic from solid, phosphate buffer pH 7.4, shaken overnight at room temperature, LC-MS/MS. The protocol: Equilibrium Solubility in Phosphate Buffer, pH 7.4:
The equilibrium solubility of test articles was measured in pH 7.4 aqueous buffers. […] At least 1 mg of powder for each test article was combined with 1 mL of buffer to make a≥1 mg/mL mixture. These samples were shaken on a Thermomixer® overnight at room temperature. The samples were then centrifuged for 10 minutes at 10,000 rpm. […] Standard concentrations ranged from 1.0 μM to 1.0 nM.

A further data set has as its target Aldose Reductase (Homo sapiens, UniProt P15121). Briefly: Aldose reductase enzymatic inhibition (micro plate assay, D-glyceraldehyde and NADPH, absorbance at 340 nm). It counts as biochemical. As to conditions: D-glyceraldehyde and NADPH as substrate; 0.1 nm to 10 uM. The protocol: Aldose Reductase Enzymatic Inhibition:
All compounds and Zopolrestat were tested individually in a micro plate assay for AR inhibition using D-glyceraldehyde and NADPH as substrate and the absorbance changes at 340 nm was monitored. % Inhibition was calculated for ARIs at concentration ranging 0.1 nm to 10 uM.

For data set [2] the following is noted: positive control, octanol/buffer pH 7.4; cited from earlier work.

In brackets after ≈: the same amount, converted by molar mass.

By melting point is commonly meant the temperature of the solid-liquid transition. The logD is the decadic logarithm of the distribution of all forms, ionised or not, between an organic phase and buffer at a given pH. In general, solubility refers to how much of the substance goes into solution per volume. Low readings indicate little dissolved substance, high ones much dissolved substance. What is called IC50 is the point on the concentration scale where inhibition reaches its midpoint.

Description for physchem: Octanol/Buffer Partition Coefficient (Log D) at pH 7.4:
The octanol/buffer partition coefficient of three test articles was measured at pH 7.4. The pH 7.4 buffer was prepared by combining 50 mL of 0.2 M solution of KH2PO4 with 150 mL of dH2O, and then adjusting to pH 7.4 with 10 N NaOH. In a single incubation, 15 μL of a 10 mM DMSO solution of each test article (100 μM) was added to test tubes which contained 0.75 mL of octanol and 0.75 mL of pH 7.4 phosphate buffer. Testosterone was also introduced to each tube as an internal control, also at a dosing concentration of 100 μM. These samples were gently mixed on a benchtop rotator for 1 hour at room temperature. The tubes were then removed from the rotator and the aqueous and organic phases were allowed to separate for 1 hour. An aliquot of the organic layer was taken and diluted 200-fold into a mixture of 1:1 buffer:acetonitrile (ACN). An aliquot of the aqueous layer was taken and diluted 2-fold, 10-fold, and 200-fold into a mixture of 1:1 buffer:ACN. All samples were assayed by LC-MS/MS using electrospray ionization.

Consider `O=C(O)Cc1nn(Cc2nc3cc(C(F)(F)F)ccc3s2)c(=O)c2c(Cl)sc(Cl)c12` [Compound VII, 2-(5,7-dichloro-4-oxo-3-((5-(trifluoromethyl)benzo[d]thiazol-2-yl)methyl)-3,4-dihydrothieno[3,4-d]pyridazin-1-yl)acetic acid], for which the melting point is 205 to 207 °C.
In the case of `O=C(O)Cc1nn(Cc2nc3cc(C(F)(F)F)ccc3s2)c(=O)c2cscc12` [Compound XII, 2-(4-oxo-3-((5-(trifluoromethyl)benzo[d]thiazol-2-yl)methyl)-3,4-dihydrothieno[3,4-d]pyridazin-1-yl)acetic acid], the logD in “physchem” is -0.09. In data set [1], this molecule gave a solubility of 970 µg/mL (≈ 2280 µM).
Molecule `O=C(O)Cc1nn(Cc2nc3cc(F)ccc3s2)c(=O)c2cscc12` [Compound XIV, 2-(3-((5-fluorobenzo[d]thiazol-2-yl)methyl)-4-oxo-3,4-dihydrothieno[3,4-d]pyridazin-1-yl)acetic acid] had a melting point of 172 to 173 °C. In addition, the logD in “physchem” was -0.87. Besides, the solubility in data set [1] amounted to 650 µg/mL (≈ 1730 µM). The molecule further showed an IC50 against Aldose Reductase of 0.06 µM.
`O=C(O)Cc1nn(Cc2nc3ccccc3s2)c(=O)c2cscc12` [Compound XVI, 2-(3-(benzo[d]thiazol-2-ylmethyl)-4-oxo-3,4-dihydrothieno[3,4-d]pyridazin-1-yl)acetic acid] showed a melting point of 172 to 173 °C.
Molecule `O=C(O)Cc1nn(Cc2nc3cc(Cl)ccc3s2)c(=O)c2cscc12` [Compound XX, 2-(3-((5-chlorobenzo[d]thiazol-2-yl)methyl)-4-oxo-3,4-dihydrothieno[3,4-d]pyridazin-1-yl)acetic acid] registered a melting point of 184 to 185 °C. Besides, in the data set “physchem”, the logD was -0.35. The molecule also gave a solubility in data set [1] of 590 µg/mL (≈ 1510 µM). On Aldose Reductase, this molecule came in with a half-inhibitory concentration (IC50) of 0.035 µM.
Regarding `CC(C)(C)OC(=O)Cc1nn(Cc2cc3cc(Cl)ccc3o2)c(=O)c2cscc12` [Compound XXIII, tert-butyl 2-(3-((5-chlorobenzofuran-2-yl)methyl)-4-oxo-3,4-dihydrothieno[3,4-d]pyridazin-1-yl)acetate], the melting point lay in the range of 117 to 118 °C.
The same measure, in the same setting: in the case of `O=C(O)Cc1nn(Cc2cc3cc(Cl)ccc3o2)c(=O)c2cscc12` [Compound XXIV, 2-(3-((5-chlorobenzofuran-2-yl)methyl)-4-oxo-3,4-dihydrothieno[3,4-d]pyridazin-1-yl)acetic acid] it was 154 to 155 °C.
`O=C(O)Cc1nn(Cc2cc3ccccc3o2)c(=O)c2cscc12` [Compound XXVI, 2-(3-(benzofuran-2-ylmethyl)-4-oxo-3,4-dihydrothieno[3,4-d]pyridazin-1-yl)acetic acid]: the melting point lay within 158 to 159 °C. This molecule also yielded a logD in the data set “physchem” of -0.86. In data set [1], this molecule displayed a solubility of 790 µg/mL (≈ 2320 µM). Further, at Aldose Reductase, 0.057 µM corresponded to half-maximal inhibition (IC50).
For the molecule `C[C@]12CC[C@H]3[C@@H](CCC4=CC(=O)CC[C@@]43C)[C@@H]1CC[C@@H]2O` [Testosterone], the “Log D (published/known)” value in data set [2] was 3.0-3.4.

These data come from US10870658B2, “Aldose reductase inhibitors and methods of use thereof” (The Trustees of Columbia University in the City of New York, priority 2016, dated 2020).
